Where “and” joins values, the source holds several entries; their conditions need not be identical. Equal values may be shown once.
Experiments:
H3 = H3 (Cavia porcellus, UniProt Q9JI35); test: Competitive radioligand binding; set-up: species or system Guinea pig
human 5-HT1A receptor = target: T1, human 5-HT1A receptor (Homo sapiens, UniProt P08908); test: Competitive radioligand binding
T1 sequence (P08908 1-422): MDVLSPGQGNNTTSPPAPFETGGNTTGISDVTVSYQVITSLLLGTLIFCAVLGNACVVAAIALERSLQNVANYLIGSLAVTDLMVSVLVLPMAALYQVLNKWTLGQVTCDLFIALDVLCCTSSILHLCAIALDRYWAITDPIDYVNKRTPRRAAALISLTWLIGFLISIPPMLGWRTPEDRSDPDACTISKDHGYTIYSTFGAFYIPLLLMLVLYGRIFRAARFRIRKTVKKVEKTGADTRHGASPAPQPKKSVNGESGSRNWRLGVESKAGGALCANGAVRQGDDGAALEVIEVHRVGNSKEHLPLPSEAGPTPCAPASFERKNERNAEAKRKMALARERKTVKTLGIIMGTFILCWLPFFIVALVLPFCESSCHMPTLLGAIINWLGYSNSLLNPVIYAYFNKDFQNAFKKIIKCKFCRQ

α1B = α1B (Homo sapiens, UniProt P35368); test: Competitive radioligand binding
male C57BL/6J mice [1] = test: Head-twitch response; type: in vivo, mouse; settings: HTR in mice
H2 = H2 (Homo sapiens, UniProt P25021); test: Competitive radioligand binding
human 5-HT2A receptor = human 5-HT2A receptor (Homo sapiens, UniProt P28223); test: Competitive radioligand binding
5-HT1D = 5-HT1D (Homo sapiens, UniProt P28221); test: Competitive radioligand binding
β3 = β3 (Homo sapiens, UniProt P13945); test: Competitive radioligand binding
human 5-HT2B (h5-HT2B) = human 5-HT2B (h5-HT2B) (Homo sapiens, UniProt P41595); test: Gq-mediated calcium flux in Flp-In T-REx 293 cells; type: cell-based; settings: Ca^2+ flux
D1 = D1 (Homo sapiens, UniProt P21728); test: Competitive radioligand binding
H1 = H1 (Homo sapiens, UniProt P35367); test: Competitive radioligand binding
D3 = D3 (Homo sapiens, UniProt P35462); test: Competitive radioligand binding
mouse 5-HT2A (m5-HT2A) = mouse 5-HT2A (m5-HT2A) (Mus musculus, UniProt P35363); test: Gq-mediated calcium flux in Flp-In T-REx 293 cells; type: cell-based
5-HT6 = 5-HT6 (Homo sapiens, UniProt P50406); test: Competitive radioligand binding
α1A = α1A (Homo sapiens, UniProt P35348); test: Competitive radioligand binding
5-HT7A = 5-HT7A (Homo sapiens, UniProt P34969); test: Competitive radioligand binding
D2 = D2 (Homo sapiens, UniProt P14416); test: Competitive radioligand binding
5-HT1B = 5-HT1B (Homo sapiens, UniProt P28222); test: Competitive radioligand binding
[2] = target: T2, human 5-HT2C INI (h5-HT2C) (Homo sapiens, UniProt P28335); type: cell-based
T2 sequence (P28335 33-458): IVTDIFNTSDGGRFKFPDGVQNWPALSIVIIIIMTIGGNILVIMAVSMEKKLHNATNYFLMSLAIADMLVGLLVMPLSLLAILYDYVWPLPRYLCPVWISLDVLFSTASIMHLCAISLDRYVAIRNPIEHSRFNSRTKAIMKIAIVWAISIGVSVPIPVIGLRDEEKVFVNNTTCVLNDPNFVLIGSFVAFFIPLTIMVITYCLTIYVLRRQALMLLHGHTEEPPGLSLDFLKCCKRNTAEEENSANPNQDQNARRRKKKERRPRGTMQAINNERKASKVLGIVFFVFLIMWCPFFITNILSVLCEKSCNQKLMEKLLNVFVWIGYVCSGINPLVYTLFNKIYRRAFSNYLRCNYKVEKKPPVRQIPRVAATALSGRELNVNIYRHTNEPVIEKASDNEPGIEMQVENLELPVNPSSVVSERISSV

D4 = D4 (Homo sapiens, UniProt P21917); test: Competitive radioligand binding
5-HT5a = 5-HT5a (Homo sapiens, UniProt P47898); test: Competitive radioligand binding
α2B = α2B (Homo sapiens, UniProt P18089); test: Competitive radioligand binding
D5 = D5 (Homo sapiens, UniProt P21918); test: Competitive radioligand binding
5-HT2B = 5-HT2B (Homo sapiens, UniProt P41595); test: Competitive radioligand binding
human 5-HT2A (h5-HT2A) = human 5-HT2A (h5-HT2A) (Homo sapiens, UniProt P28223); test: Gq-mediated calcium flux in Flp-In T-REx 293 cells; type: cell-based
α2A = α2A (Homo sapiens, UniProt P08913); test: Competitive radioligand binding
α1D = α1D (Homo sapiens, UniProt P25100); test: Competitive radioligand binding
β1 = β1 (Homo sapiens, UniProt P08588); test: Competitive radioligand binding; set-up: species or system Human (heart)
β2 = β2 (Homo sapiens, UniProt P07550); test: Competitive radioligand binding
H4 = H4 (Homo sapiens, UniProt Q9H3N8); test: Competitive radioligand binding
male C57BL/6J mice [3] = settings: HTR, ref Brandt et al. (2019), cited from earlier work
α2C = α2C (Homo sapiens, UniProt P18825); test: Competitive radioligand binding
human 5-HT2C receptor = target: T3, human 5-HT2C receptor (Homo sapiens, UniProt P28335); test: biochemical; type: binding
T3 sequence (P28335 33-458): T2 sequence (P28335 33-458)

human 5-HT2A (h5-HT2A), sequence (P28223 whole entry): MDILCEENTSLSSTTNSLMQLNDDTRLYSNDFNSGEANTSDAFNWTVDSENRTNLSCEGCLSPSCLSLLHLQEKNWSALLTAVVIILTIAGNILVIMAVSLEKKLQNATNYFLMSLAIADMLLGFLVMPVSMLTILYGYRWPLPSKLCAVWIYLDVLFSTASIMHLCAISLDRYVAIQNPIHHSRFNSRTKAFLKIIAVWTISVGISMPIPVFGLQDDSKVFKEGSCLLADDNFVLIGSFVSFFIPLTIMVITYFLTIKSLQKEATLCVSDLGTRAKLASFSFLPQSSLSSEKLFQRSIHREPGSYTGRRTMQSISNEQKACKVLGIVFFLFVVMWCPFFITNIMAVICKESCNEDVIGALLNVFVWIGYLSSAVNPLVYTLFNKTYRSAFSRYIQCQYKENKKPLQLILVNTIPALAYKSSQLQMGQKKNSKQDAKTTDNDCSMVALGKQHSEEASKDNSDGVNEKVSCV
mouse 5-HT2A (m5-HT2A), sequence (P35363 whole entry): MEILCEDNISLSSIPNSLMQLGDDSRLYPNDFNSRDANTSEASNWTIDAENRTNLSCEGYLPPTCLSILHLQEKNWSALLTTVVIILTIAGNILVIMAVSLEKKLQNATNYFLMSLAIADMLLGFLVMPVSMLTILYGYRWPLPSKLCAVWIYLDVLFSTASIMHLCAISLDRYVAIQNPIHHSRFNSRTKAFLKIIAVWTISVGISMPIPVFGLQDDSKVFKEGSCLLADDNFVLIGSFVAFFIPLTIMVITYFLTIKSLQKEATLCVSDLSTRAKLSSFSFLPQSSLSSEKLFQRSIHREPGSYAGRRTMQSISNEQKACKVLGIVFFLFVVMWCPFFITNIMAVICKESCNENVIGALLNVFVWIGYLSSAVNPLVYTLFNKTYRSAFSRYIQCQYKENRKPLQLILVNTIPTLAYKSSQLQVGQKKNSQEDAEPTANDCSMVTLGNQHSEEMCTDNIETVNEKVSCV
5-HT1B, sequence (P28222 whole entry): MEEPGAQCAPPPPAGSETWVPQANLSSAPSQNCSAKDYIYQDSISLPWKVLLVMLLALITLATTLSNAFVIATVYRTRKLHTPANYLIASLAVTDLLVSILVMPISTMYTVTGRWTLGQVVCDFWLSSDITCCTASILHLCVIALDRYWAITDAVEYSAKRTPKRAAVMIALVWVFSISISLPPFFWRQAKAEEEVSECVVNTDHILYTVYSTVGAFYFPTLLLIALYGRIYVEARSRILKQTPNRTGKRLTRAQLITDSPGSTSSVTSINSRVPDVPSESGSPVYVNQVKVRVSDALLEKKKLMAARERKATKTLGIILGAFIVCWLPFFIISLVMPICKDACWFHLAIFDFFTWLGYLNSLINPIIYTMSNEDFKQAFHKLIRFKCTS
β3, sequence (P13945 whole entry): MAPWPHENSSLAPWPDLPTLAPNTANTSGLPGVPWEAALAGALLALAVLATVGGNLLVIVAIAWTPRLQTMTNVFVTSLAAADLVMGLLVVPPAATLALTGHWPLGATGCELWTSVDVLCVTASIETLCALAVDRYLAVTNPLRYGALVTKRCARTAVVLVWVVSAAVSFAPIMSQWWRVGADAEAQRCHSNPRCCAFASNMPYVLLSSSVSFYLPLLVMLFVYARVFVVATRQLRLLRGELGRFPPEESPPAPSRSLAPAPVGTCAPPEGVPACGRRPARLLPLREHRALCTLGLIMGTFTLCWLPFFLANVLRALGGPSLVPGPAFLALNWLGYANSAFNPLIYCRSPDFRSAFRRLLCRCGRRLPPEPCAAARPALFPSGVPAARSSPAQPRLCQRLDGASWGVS
α2A, sequence (P08913 whole entry): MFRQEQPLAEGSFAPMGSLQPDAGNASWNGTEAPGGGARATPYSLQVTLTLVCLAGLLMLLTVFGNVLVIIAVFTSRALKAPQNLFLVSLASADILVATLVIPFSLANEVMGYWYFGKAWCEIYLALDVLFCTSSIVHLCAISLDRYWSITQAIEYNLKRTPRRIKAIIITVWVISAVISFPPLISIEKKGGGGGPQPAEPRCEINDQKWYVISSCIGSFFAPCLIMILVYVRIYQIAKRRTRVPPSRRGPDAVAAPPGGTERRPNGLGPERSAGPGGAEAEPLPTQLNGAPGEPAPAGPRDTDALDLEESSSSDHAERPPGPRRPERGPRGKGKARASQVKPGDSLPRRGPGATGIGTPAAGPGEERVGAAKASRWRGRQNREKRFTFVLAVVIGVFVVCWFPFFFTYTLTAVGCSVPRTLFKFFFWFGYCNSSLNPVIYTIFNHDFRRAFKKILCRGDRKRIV
H3, sequence (Q9JI35 whole entry): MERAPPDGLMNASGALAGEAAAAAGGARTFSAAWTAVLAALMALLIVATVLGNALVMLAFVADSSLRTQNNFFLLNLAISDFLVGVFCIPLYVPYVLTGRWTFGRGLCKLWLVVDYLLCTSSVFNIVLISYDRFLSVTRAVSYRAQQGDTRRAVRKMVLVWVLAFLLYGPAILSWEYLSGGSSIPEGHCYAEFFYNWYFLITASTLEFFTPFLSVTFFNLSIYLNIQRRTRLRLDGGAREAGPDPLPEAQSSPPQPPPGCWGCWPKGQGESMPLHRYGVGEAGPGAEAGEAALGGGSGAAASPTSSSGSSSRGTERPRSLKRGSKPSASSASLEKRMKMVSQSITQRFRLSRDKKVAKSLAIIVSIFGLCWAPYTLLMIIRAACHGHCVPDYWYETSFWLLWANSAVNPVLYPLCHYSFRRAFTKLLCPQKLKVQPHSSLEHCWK
5-HT6, sequence (P50406 whole entry): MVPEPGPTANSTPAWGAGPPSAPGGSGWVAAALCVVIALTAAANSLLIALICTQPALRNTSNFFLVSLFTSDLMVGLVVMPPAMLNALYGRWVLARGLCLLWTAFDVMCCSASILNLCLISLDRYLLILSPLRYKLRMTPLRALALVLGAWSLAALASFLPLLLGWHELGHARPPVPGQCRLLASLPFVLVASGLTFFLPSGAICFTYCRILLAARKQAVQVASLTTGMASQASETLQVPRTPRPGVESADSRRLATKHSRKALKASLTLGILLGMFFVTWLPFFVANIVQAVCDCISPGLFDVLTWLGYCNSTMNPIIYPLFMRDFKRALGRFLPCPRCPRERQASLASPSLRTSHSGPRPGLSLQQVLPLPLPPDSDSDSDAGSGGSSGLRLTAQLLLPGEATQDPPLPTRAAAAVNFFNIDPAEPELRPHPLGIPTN
D1, sequence (P21728 whole entry): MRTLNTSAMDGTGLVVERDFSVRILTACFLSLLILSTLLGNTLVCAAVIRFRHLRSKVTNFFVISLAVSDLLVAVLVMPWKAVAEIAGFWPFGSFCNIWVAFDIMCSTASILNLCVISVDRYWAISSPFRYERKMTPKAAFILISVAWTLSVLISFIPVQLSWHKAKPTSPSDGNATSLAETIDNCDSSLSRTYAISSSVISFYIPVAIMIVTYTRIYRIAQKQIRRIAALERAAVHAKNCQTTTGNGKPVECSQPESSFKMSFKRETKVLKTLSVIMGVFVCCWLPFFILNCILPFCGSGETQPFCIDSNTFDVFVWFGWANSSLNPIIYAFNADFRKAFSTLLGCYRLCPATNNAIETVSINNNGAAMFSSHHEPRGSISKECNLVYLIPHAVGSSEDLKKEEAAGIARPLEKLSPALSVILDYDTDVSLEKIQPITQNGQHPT
α2C, sequence (P18825 whole entry): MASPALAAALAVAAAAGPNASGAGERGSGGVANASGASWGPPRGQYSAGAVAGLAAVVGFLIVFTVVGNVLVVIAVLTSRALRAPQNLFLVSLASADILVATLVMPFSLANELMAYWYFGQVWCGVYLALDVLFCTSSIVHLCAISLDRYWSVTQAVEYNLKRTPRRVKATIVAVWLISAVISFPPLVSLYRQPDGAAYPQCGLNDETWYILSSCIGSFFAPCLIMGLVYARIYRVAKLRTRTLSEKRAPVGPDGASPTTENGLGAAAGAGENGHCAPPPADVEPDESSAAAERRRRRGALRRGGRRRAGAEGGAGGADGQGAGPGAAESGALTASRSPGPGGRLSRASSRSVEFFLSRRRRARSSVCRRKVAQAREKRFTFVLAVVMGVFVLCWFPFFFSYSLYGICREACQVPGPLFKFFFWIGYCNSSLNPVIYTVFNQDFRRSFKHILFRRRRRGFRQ
5-HT1D, sequence (P28221 whole entry): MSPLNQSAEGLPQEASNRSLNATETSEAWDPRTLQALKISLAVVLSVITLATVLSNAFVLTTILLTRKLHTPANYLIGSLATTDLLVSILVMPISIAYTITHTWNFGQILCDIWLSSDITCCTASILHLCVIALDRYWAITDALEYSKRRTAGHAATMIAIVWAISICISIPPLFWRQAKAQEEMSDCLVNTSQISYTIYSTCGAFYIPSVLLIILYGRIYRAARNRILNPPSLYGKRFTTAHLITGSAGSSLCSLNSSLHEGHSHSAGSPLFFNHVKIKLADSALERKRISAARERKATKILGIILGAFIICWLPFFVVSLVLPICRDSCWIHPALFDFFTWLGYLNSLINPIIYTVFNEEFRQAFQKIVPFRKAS
D3, sequence (P35462 whole entry): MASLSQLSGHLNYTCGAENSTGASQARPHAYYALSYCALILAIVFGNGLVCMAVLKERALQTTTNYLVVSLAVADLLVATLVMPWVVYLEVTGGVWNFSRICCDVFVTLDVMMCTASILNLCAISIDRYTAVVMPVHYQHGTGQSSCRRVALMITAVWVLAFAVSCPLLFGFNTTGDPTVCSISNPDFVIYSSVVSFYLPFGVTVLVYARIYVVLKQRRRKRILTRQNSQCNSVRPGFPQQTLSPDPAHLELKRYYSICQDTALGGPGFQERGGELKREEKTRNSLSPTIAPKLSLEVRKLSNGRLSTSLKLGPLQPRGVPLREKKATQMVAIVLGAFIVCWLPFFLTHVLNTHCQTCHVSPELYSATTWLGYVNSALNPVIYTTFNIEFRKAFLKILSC

SMILES: CCCC(=O)n1cc2c3c(cccc31)C1=C[C@@H](C(=O)N(CC)CC)CN(C)[C@@H]1C2 [1B-LSD, 1-butanoyl-D-lysergic acid diethylamide]
- Ki (H3): > 10000 nM
- Ki (human 5-HT1A receptor): 345 ± 118 nM
- fold lower affinity than LSD for the 5-HT1A receptor (human 5-HT1A receptor; human 5-HT1A, relative to LSD): 36 fold
- Ki (α1B): > 10000 nM
- HTR potency as percent of the (molar) potency of LSD (male C57BL/6J mice [1]): ~ 14%
- Ki (H2): 842 ± 201 nM
- Ki (human 5-HT2A receptor): 87.7 ± 9.4 nM
- Ki (5-HT1D): 295 ± 77 nM
- Ki (β3): > 10000 nM
- agonist activity (human 5-HT2B (h5-HT2B)): no agonist activity
- Ki (D1): 1170 nM
- Ki (H1): > 10000 nM
- Ki (D3): 352 ± 64 nM
- EC50 (mouse 5-HT2A (m5-HT2A); EC50, nM, Ca^2+ flux): 45 nM
- Emax % 5-HT (mouse 5-HT2A (m5-HT2A); percent 5-HT maximum response): 35 ± 2 % 5-HT
- Ki (5-HT6): 607 ± 112 nM
- Ki (α1A): > 10000 nM
- Ki (5-HT7A): 554 ± 158 nM
- Ki (D2): > 10000 nM
- Ki (5-HT1B): 1460 nM
- agonist activity [2]: no agonist activity
- Ki (D4): 2270 nM
- Ki (5-HT5a): 158 ± 42 nM
- Ki (α2B): 2660 nM
- Ki (D5): > 10000 nM
- Ki (5-HT2B): 3.5 ± 0.6 nM
- EC50 (human 5-HT2A (h5-HT2A); EC50, nM, Ca^2+ flux): 85 nM
- Emax % 5-HT (human 5-HT2A (h5-HT2A); percent 5-HT maximum response): 23 % 5-HT and 23 ± 2 % 5-HT
- Ki (α2A): 537 ± 85 nM
- Ki (α1D): > 10000 nM
- Ki (β1): > 10000 nM
- Ki (β2): > 10000 nM
- Ki (H4): > 10000 nM
- ED50 μg/kg (95% CI) (male C57BL/6J mice [3]; hemitartrate (2:1) salt): 457.6 (334.9–625.5) μg/kg
- ED50 nmol/kg (95% CI) (male C57BL/6J mice [3]): 976.7 (714.8–1335) nmol/kg
- Molar potency (relative to LSD) (male C57BL/6J mice [3]; listed as 1-Butanoyl-LSD): 0.14
- Ki (α2C): 812 ± 267 nM
- Ki (human 5-HT2C receptor): 20.8 nM
